According to the supplement of paper PMC10307832:

Tests used:
Test in all cases: relative viability (nuclei count vs DMSO), 5 days (fraction); higher = more cells survive
[1] = system: 201T
Procedure, shortened: (§1)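 Medians of duplicate plates are given as relative viability. That measure is the nuclei count in treated wells divided by the count in vehicle wells. Counts were taken on 4× images of lung cancer cell lines in 1536-well plates, 5 days after pin-tool dosing the day after seeding with one drug alone or a fixed anchor-drug dose plus five library-drug doses (not always all listed) in √10 steps.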

[2] = system: COR-L 105
Procedure, shortened: as §1

[3] = system: ChaGo-K-1
Procedure, shortened: as §1

[4] = system: EPLC-272H
Procedure, shortened: as §1

[5] = system: H3255
Procedure, shortened: as §1

[6] = system: HCC-78
Procedure, shortened: as §1

[7] = system: HCC-827
Procedure, shortened: as §1

[8] = system: LC-2-ad
Procedure, shortened: as §1

[9] = system: LCLC-97TM1
Procedure, shortened: as §1

[10] = system: NCI-H1666
Procedure, shortened: as §1

[11] = system: NCI-H1915
Procedure, shortened: as §1

[12] = system: NCI-H2087
Procedure, shortened: as §1

[13] = system: NCI-H2126
Procedure, shortened: as §1

[14] = system: NCI-H2347
Procedure, shortened: as §1

[15] = system: NCI-H23
Procedure, shortened: as §1

[16] = system: NCI-H2405
Procedure, shortened: as §1

[17] = system: NCI-H520
Procedure, shortened: as §1

[18] = system: NCI-H647
Procedure, shortened: as §1

[19] = system: NCI-H650
Procedure, shortened: as §1

[20] = system: NCI-H661
Procedure, shortened: as §1

[21] = system: PC-14
Procedure, shortened: as §1

[22] = system: RERF-LC-KJ
Procedure, shortened: as §1

Q: `Cc1sc2c(c1C)C(c1ccc(Cl)cc1)=N[C@@H](CC(=O)OC(C)(C)C)c1nnc(C)n1-2` [JQ1] + O=C(c1cc(Cc2n[nH]c(=O)c3ccccc23)ccc1F)N1CCN(C(=O)C2CC2)CC1 [Olaparib] (partner 8 µM) was tested. Which relative viability ([1]; first compound 0.04 µM) did it give?
A: 0.871

Q: And the relative viability ([1]; first compound 0.4 µM)?
A: 0.613

Q: And the relative viability ([1]; first compound 1.265 µM)?
A: 0.498

Q: What about the relative viability ([1]; first compound 4 µM) of the same compound?
A: 0.347

Q: What about the relative viability ([2]; first compound 0.04 µM) of the same compound?
A: 0.624

Q: What about the relative viability ([2]; first compound 0.1265 µM) of the same compound?
A: 0.497

Q: What about the relative viability ([2]; first compound 0.4 µM) of the same compound?
A: 0.385

Q: What about the relative viability ([2]; first compound 1.265 µM) of the same compound?
A: 0.329

Q: What about the relative viability ([2]; first compound 4 µM) of the same compound?
A: 0.351

Q: What about the relative viability ([3]; first compound 0.04 µM) of the same compound?
A: 0.392

Q: What about the relative viability ([3]; first compound 0.1265 µM) of the same compound?
A: 0.37

Q: And the relative viability ([3]; first compound 0.4 µM)?
A: 0.29

Q: And the relative viability ([3]; first compound 1.265 µM)?
A: 0.239

Q: And the relative viability ([3]; first compound 4 µM)?
A: 0.214

Q: And the relative viability ([4]; first compound 0.04 µM)?
A: 0.836

Q: What about the relative viability ([4]; first compound 0.1265 µM) of the same compound?
A: 0.716

Q: And the relative viability ([4]; first compound 0.4 µM)?
A: 0.53

Q: And the relative viability ([4]; first compound 1.265 µM)?
A: 0.471

Q: What about the relative viability ([4]; first compound 4 µM) of the same compound?
A: 0.199

Q: What about the relative viability ([5]; first compound 0.04 µM) of the same compound?
A: 0.528

Q: What about the relative viability ([5]; first compound 0.1265 µM) of the same compound?
A: 0.492

Q: And the relative viability ([5]; first compound 0.4 µM)?
A: 0.439

Q: And the relative viability ([5]; first compound 1.265 µM)?
A: 0.305

Q: And the relative viability ([5]; first compound 4 µM)?
A: 0.264

Q: What about the relative viability ([6]; first compound 0.04 µM) of the same compound?
A: 0.7

Q: And the relative viability ([6]; first compound 0.1265 µM)?
A: 0.693

Q: And the relative viability ([6]; first compound 0.4 µM)?
A: 0.807

Q: What about the relative viability ([6]; first compound 1.265 µM) of the same compound?
A: 0.581

Q: And the relative viability ([6]; first compound 4 µM)?
A: 0.494

Q: And the relative viability ([7]; first compound 0.04 µM)?
A: 0.622

Q: And the relative viability ([7]; first compound 0.1265 µM)?
A: 0.477

Q: And the relative viability ([7]; first compound 1.265 µM)?
A: 0.596

Q: What about the relative viability ([7]; first compound 4 µM) of the same compound?
A: 0.363

Q: And the relative viability ([8]; first compound 0.04 µM)?
A: 0.701

Q: And the relative viability ([8]; first compound 0.1265 µM)?
A: 0.599

Q: And the relative viability ([8]; first compound 0.4 µM)?
A: 0.332

Q: And the relative viability ([8]; first compound 1.265 µM)?
A: 0.256

Q: What about the relative viability ([8]; first compound 4 µM) of the same compound?
A: 0.256

Q: And the relative viability ([9]; first compound 0.04 µM)?
A: 0.354

Q: And the relative viability ([9]; first compound 0.1265 µM)?
A: 0.297

Q: What about the relative viability ([9]; first compound 0.4 µM) of the same compound?
A: 0.297

Q: And the relative viability ([9]; first compound 1.265 µM)?
A: 0.149

Q: And the relative viability ([9]; first compound 4 µM)?
A: 0.108

Q: What about the relative viability ([10]; first compound 0.04 µM) of the same compound?
A: 0.708

Q: What about the relative viability ([10]; first compound 0.1265 µM) of the same compound?
A: 0.616

Q: And the relative viability ([10]; first compound 0.4 µM)?
A: 0.685

Q: What about the relative viability ([10]; first compound 1.265 µM) of the same compound?
A: 0.662

Q: What about the relative viability ([10]; first compound 4 µM) of the same compound?
A: 0.577

Q: What about the relative viability ([11]; first compound 0.04 µM) of the same compound?
A: 0.23

Q: And the relative viability ([11]; first compound 0.4 µM)?
A: 0.184

Q: And the relative viability ([11]; first compound 1.265 µM)?
A: 0.138

Q: What about the relative viability ([11]; first compound 4 µM) of the same compound?
A: 0.107

Q: What about the relative viability ([12]; first compound 0.04 µM) of the same compound?
A: 0.503

Q: And the relative viability ([12]; first compound 0.1265 µM)?
A: 0.509

Q: What about the relative viability ([12]; first compound 0.4 µM) of the same compound?
A: 0.646

Q: And the relative viability ([12]; first compound 1.265 µM)?
A: 0.381

Q: What about the relative viability ([12]; first compound 4 µM) of the same compound?
A: 0.297

Q: What about the relative viability ([13]; first compound 0.04 µM) of the same compound?
A: 0.895

Q: What about the relative viability ([13]; first compound 0.1265 µM) of the same compound?
A: 0.909

Q: What about the relative viability ([13]; first compound 0.4 µM) of the same compound?
A: 0.951

Q: What about the relative viability ([13]; first compound 1.265 µM) of the same compound?
A: 0.8

Q: What about the relative viability ([13]; first compound 4 µM) of the same compound?
A: 0.735

Q: And the relative viability ([14]; first compound 0.04 µM)?
A: 0.544

Q: What about the relative viability ([14]; first compound 0.1265 µM) of the same compound?
A: 0.557

Q: And the relative viability ([14]; first compound 0.4 µM)?
A: 0.477

Q: And the relative viability ([14]; first compound 1.265 µM)?
A: 0.435

Q: And the relative viability ([14]; first compound 4 µM)?
A: 0.409

Q: What about the relative viability ([15]; first compound 0.04 µM) of the same compound?
A: 0.329

Q: What about the relative viability ([15]; first compound 0.1265 µM) of the same compound?
A: 0.341

Q: And the relative viability ([15]; first compound 0.4 µM)?
A: 0.162

Q: And the relative viability ([15]; first compound 1.265 µM)?
A: 0.179

Q: And the relative viability ([15]; first compound 4 µM)?
A: 0.127

Q: What about the relative viability ([16]; first compound 0.04 µM) of the same compound?
A: 0.867

Q: What about the relative viability ([16]; first compound 0.4 µM) of the same compound?
A: 0.851

Q: And the relative viability ([16]; first compound 1.265 µM)?
A: 0.693

Q: And the relative viability ([16]; first compound 4 µM)?
A: 0.433

Q: What about the relative viability ([17]; first compound 0.04 µM) of the same compound?
A: 0.285

Q: What about the relative viability ([17]; first compound 0.1265 µM) of the same compound?
A: 0.298

Q: What about the relative viability ([17]; first compound 0.4 µM) of the same compound?
A: 0.251

Q: And the relative viability ([17]; first compound 1.265 µM)?
A: 0.165

Q: What about the relative viability ([17]; first compound 4 µM) of the same compound?
A: 0.156

Q: What about the relative viability ([18]; first compound 0.04 µM) of the same compound?
A: 0.384

Q: What about the relative viability ([18]; first compound 0.1265 µM) of the same compound?
A: 0.185

Q: What about the relative viability ([18]; first compound 0.4 µM) of the same compound?
A: 0.128

Q: And the relative viability ([18]; first compound 1.265 µM)?
A: 0.0378

Q: And the relative viability ([18]; first compound 4 µM)?
A: 0.036

Q: What about the relative viability ([19]; first compound 0.04 µM) of the same compound?
A: 0.363

Q: And the relative viability ([19]; first compound 0.1265 µM)?
A: 0.306

Q: And the relative viability ([19]; first compound 0.4 µM)?
A: 0.273

Q: And the relative viability ([19]; first compound 1.265 µM)?
A: 0.151

Q: What about the relative viability ([19]; first compound 4 µM) of the same compound?
A: 0.146

Q: What about the relative viability ([20]; first compound 0.04 µM) of the same compound?
A: 0.75

Q: What about the relative viability ([20]; first compound 0.1265 µM) of the same compound?
A: 0.709

Q: What about the relative viability ([20]; first compound 0.4 µM) of the same compound?
A: 0.781

Q: And the relative viability ([20]; first compound 1.265 µM)?
A: 0.536

Q: What about the relative viability ([20]; first compound 4 µM) of the same compound?
A: 0.427

Q: And the relative viability ([21]; first compound 0.04 µM)?
A: 0.271

Q: What about the relative viability ([21]; first compound 0.1265 µM) of the same compound?
A: 0.153

Q: And the relative viability ([21]; first compound 0.4 µM)?
A: 0.14

Q: What about the relative viability ([21]; first compound 1.265 µM) of the same compound?
A: 0.0655

Q: And the relative viability ([21]; first compound 4 µM)?
A: 0.0723

Q: And the relative viability ([22]; first compound 0.04 µM)?
A: 0.904

Q: And the relative viability ([22]; first compound 0.1265 µM)?
A: 0.808

Q: What about the relative viability ([22]; first compound 0.4 µM) of the same compound?
A: 0.669

Q: And the relative viability ([22]; first compound 1.265 µM)?
A: 0.42

Q: What about the relative viability ([22]; first compound 4 µM) of the same compound?
A: 0.338
